Data reported in US5534533A, “Carboxylate derivatives exhibiting phospholipase A2 inhibitory activity” (Shionogi & Co., Ltd., priority 1993, dated 1996).

Key:
Human secretory PLA2 = molecular target: T1, Human secretory PLA2 (Homo sapiens, UniProt P14555); experiment: Secretory PLA2 inhibitory activity (diheptanoyl thio PC substrate, absorbance at 405 nm); type: biochemical; conditions: diheptanoyl thio PC 1 mM, Triton X100 0.3 mM, pH 7.3, CaCl2 10 mM, 30 minutes, read-out: s-PLA2 Inhibition IC50
T1 sequence (P14555 21-144): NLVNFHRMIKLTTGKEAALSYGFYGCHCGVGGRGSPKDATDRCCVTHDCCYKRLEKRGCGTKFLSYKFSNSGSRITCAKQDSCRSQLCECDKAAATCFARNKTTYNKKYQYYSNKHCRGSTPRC
Procedure: Secretory PLA2 activity was assayed according to the method described in Penynolds L. J., Hughes L. L., Dennis E. A. et al. Anal. Biochem. 201,190-197 (1992).
Diheptanoyl thiophosphatidylcholine which was prepared according to the procedure described in the literature was used as a substrate. Human secretory PLA2 was used as an enzyme. The diheptanoyl thio PC (1 mM) was reacted with the human secretory PLA2 in the presence of Triton X100 (0.3 mM) and 5,5'-dithiobis-(2-nitrobenzoic acid) (125 μM) in Tris buffer (25 mM, pH 7.3), CaCl2 (10 mM), KCI (100 mM), bovine serum albumin (1.0 mg/ml), and then the change in absorbance at 405 nm at the time of 30 minutes after the reaction was assayed.
Inhibitory activity (%) was estimated by the formula: [(the change in absorbance with the inhibitor and PLA2 ·the change in absorbance with the inhibitor and without PLA2)/(the change in absorbance without the inhibitor and with PLA2 ·the change in absorbance without the inhibitor and PLA2)]×100.
IC50 value (μM) was calculated from graph showing inhibitory values on the vertical axis and log of concentrations of the inhibitor on the horizontal axis.

[1] = molecular target: T2, intracellular PLA2 (cytosolic PLA2, cPLA2) (Homo sapiens, UniProt P47712); experiment: Intracellular PLA2 (cPLA2) inhibitory activity (14C-arachidonyl phosphatidylcholine substrate); type: biochemical; conditions: 2 μM radiolabelled phosphatidylcholine, 1 μM dioleoylglycerol, 1 mM CaCl2, pH 7.4; read-out: c-PLA2 Inhibition IC50
T2 sequence (P47712 1-749): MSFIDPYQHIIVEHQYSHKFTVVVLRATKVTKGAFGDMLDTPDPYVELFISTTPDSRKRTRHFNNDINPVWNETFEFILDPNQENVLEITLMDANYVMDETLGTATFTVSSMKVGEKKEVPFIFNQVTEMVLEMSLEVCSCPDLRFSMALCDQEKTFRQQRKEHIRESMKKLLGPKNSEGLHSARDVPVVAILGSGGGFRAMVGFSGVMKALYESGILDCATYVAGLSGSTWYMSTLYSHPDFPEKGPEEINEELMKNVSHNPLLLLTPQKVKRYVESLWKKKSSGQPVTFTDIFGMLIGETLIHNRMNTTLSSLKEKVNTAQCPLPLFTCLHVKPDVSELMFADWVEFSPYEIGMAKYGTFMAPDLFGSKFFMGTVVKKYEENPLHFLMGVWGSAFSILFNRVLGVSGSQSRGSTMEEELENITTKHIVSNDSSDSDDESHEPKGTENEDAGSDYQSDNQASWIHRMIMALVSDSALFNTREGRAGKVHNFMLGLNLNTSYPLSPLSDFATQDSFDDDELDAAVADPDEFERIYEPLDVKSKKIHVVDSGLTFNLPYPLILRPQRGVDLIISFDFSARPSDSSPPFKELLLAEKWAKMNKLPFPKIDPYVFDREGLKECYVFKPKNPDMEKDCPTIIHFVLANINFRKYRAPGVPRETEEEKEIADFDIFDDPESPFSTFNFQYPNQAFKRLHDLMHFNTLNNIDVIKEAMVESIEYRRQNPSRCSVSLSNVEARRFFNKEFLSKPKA
Procedure: cPLA2 activity was assayed according to the method described in R. M. Kramer, E. F. Roberts, J. Manetta and J. E. Putnam, J. Biol. Chem., 268 (8), 5268-5272 (1991). Briefly, intracellular PLA2 activity was assayed using supersonic treated […] which contain 1-palmitoyl-2-[^14 C]arachidonyl-sn-glycero-3-phosphocholine and sn-1, 2-dioleoylglycerol at a molar ratio of 2:1. This test mixture contained 1 mM CaCl2, 2 mM dithiothreitol, 150 mM NaCl, 50 mM Hepes, pH 7.4 and 0.1 mg/ml BSA. A substrate is a 2 μM radioisotope labelled phosphatidylcholine ribosome containing 1 μM dioleoylglycerol. IC50 value is calculating in the same manner as in calculating it for secretory PLA2 inhibitory activity.

Compound | IC50 (Human secretory PLA2) [µM] | IC50 [1] [µM]
COc1c(C)c(OC(=O)c2c(C)c(C)c(OCCCN(S(C)(=O)=O)S(=O)(=O)c3ccc(F)cc3)c(C)c2OC)c(C)c(C)c1C(=O)O [Example 57, 4-{4-[3-Methylsulfonyl-(4-fluorophenyl)sulfonylaminopropoxy]-2-methoxy-3,5,6-trimethylbenzoyloxy}-2-methoxy-3,5,6-trimethylbenzoic Acid] | 5.7 | 16
COc1c(C)c(OC(=O)c2c(C)c(C)c(OCCCN(Cc3ccccc3)Cc3ccccc3)c(C)c2OC)c(C)c(C)c1C(=O)O [Example 63, 4-{4-[3-(bis-Benzylamino)propoxy]-2-methoxy-3,5,6-trimethylbenzoyloxy}-2-methoxy-3,5,6-trimethylbenzoic Acid] | 12 | 2.5
COc1c(C(C)(C)C)cc(SCCCOc2c(C)c(C)c(C(=O)O)c(OC)c2C)cc1C(C)(C)C [Example 16, 4-[3-(3,5-Di-tert-butyl-4-methoxyphenylthio)propyloxy]-2-methoxy-3,5,6-trimethylbenzoic acid] | > 50 | 2.6
COc1c(C)c(OC(=O)c2c(C)c(C)c(OCCCOc3ccc(F)cc3F)c(C)c2OC)c(C)c(C)c1C(=O)O [Example 14, 4-[4-[3-(2,4-difluorophenoxy)propyloxy]-2-methoxy-3,5,6-trimethylphenylcarboxy]-2-methoxy-3,5,6-trimethylbenzoic acid] | 14 | 9.4
COc1c(C)c(OC(=O)c2c(C)c(C)c(OCCCOc3cc4c(cc3C(c3ccccc3)c3ccccc3)OCO4)c(C)c2OC)c(C)c(C)c1C(=O)O [Example 27, 4-{4-[3-(6-Benzhydrylbenzo[1, 3]dioxol-5-yloxy)-propoxy]-2-methoxy-3,5,6-trimethylbenzoyloxy}-2-methoxy-3,5,6-trimethylbenzoic Acid] | 13 | 1.5
COc1c(C)c(OC(=O)c2c(C)c(C)c(OCCCCCCSc3ccc(F)cc3)c(C)c2OC)c(C)c(C)c1C(=O)O [Example 5, 4-[4-[6-(4-Fluorophenylthio)hexyloxy]-2-methoxy-3,5,6-trimethylphenylcarboxy]-2-methoxy-3,5,6-trimethylbenzoic acid] | 47 | 4
COc1c(C)c(OC(=O)c2c(C)c(C)c(OCCC=C(c3ccccc3)c3ccccc3)c(C)c2OC)c(C)c(C)c1C(=O)O [Example 48, 4-[4-(4,4-Diphenylbut-3-enyloxy)-2-methoxy-3,5,6-trimethylbenzoyloxy]-2-methoxy-3,5,6-trimethylbenzoic Acid] | 12 | 3
COc1c(C)c(OC(=O)c2c(C)c(C)c(OCCCN3C(=O)c4ccccc4S3(=O)=O)c(C)c2OC)c(C)c(C)c1C(=O)O [Example 65, 4-{4-[3-(1, 1 -Dihydroxy-3-oxo-3H-benzo[d]-isothiazole-2-yl)propoxy]-2-methoxy-3,5,6-trimethylbenzoyloxy}-2-methoxy-3,5,6-trimethylbenzoic Acid] | 6.7 | 21
COc1c(C)c(OC(=O)c2c(C)c(C)c(OCc3ccccc3)c(C)c2OC)c(C)c(C)c1C(=O)O [Example 9, 4-[4-Benzyloxy-2-methoxy-3,5,6-trimethylphenylcarboxy)2-methoxy-3,5,6-trimethylbenzoic acid] | 45 | 33

Further molecules by falling IC50 (Human secretory PLA2), results first:

IC50 (Human secretory PLA2) [µM] | IC50 [1] [µM] | Compound
50 | 3 | COc1c(C)c(OC(=O)c2c(C)c(C)c(OCCC(C)CCCC(C)C)c(C)c2OC)c(C)c(C)c1C(=O)O (stereo not shown) [Example 50, 4-[4-(3,7-Dimethyloctyloxy)-2-methoxy-3,5,6-trimethylbenzoyloxy]-2-methoxy-3,5,6-trimethylbenzoic Acid]
44 | 4.1 | COc1c(C)c(OC(=O)c2c(C)c(C)c(OCCC3=CCC4CC3C4(C)C)c(C)c2OC)c(C)c(C)c1C(=O)O (single isomer, unassigned) [Example 49, 4-{4-[2-(6,6-Dimetheylbicyclo[3.1.1]hept-2-en-2-yl)ethoxy]-2-methoxy-3,5,6-trimethylbenzoyloxy}-2-methoxy-3,5,6-trimethylbenzoic Acid]
32 | 3 | COc1c(C)c(OC(=O)c2c(C)c(C)c(OCCCCCCOc3ccc(C(F)(F)F)cc3)c(C)c2OC)c(C)c(C)c1C(=O)O [Example 3, 4-[4-[6-(4-Trifluoromethylphenoxy)hexyloxy]-2-methoxy-3,5,6-trimethylphenylcarboxy]-2-methoxy-3,5,6-trimethylbenzoic acid]
17 | > 50 | COc1c(C)c(OC(=O)c2c(C)c(C)c(OCCCNS(=O)(=O)c3ccccc3)c(C)c2OC)c(C)c(C)c1C(=O)O [Example 54, 4-{4-[(3-Phenylsulfonylamino)propoxy]-2-methoxy-3,5,6-trimethylbenzoyloxy}-2-methoxy-3,5,6-trimethylbenzoic Acid]
12 | 6.6 | COc1c(C)c(OC(=O)c2c(C)c(C)c(OCCCOc3cccc(F)c3F)c(C)c2OC)c(C)c(C)c1C(=O)O [Example 37, 4-{4-[3-(2,3-Difluorophenoxy)propoxy]-2-methoxy-3,5,6-trimethylbenzoyloxy}-2-methoxy-3,5,6-trimethylbenzoic Acid]
8.9 | 12 | COc1ccccc1OCCCOc1c(C)c(C)c(C(=O)Oc2c(C)c(C)c(C(=O)O)c(OC)c2C)c(OC)c1C [Example 39, 4-{4-[3-(2-Methoxyphenoxy)propoxy]-2-methoxy-3,5,6-trimethylbenzoyloxy}-2-methoxy-3,5,6-trimethylbenzoic Acid]
4.5 | 21 | COc1c(C)c(OC(=O)c2c(C)c(C)c(OCCCN(S(C)(=O)=O)S(=O)(=O)c3ccccc3)c(C)c2OC)c(C)c(C)c1C(=O)O [Example 52]
3.8 | 9.5 | COc1c(C)c(OC(=O)c2c(C)c(C)c(OCCCN(C(=O)c3ccccc3)C(=O)c3ccccc3)c(C)c2OC)c(C)c(C)c1C(=O)O [Example 62, 4-[4-(3-Dibenzoylaminopropoxy)-2-methoxy-3,5,6-trimethylbenzoyloxy}-2-methoxy-3,5,6-trimethylbenzoic Acid]
0.94 | 9.3 | COc1c(C)c(OC(=O)c2c(C)c(C)c(OCCCOc3ccc(F)cc3)c(C)c2OC)c(C)c(C)c1C(N)=O [Example 44, 4-{4-[3-(4-Fluorophenoxy)propoxy]-2-methoxy-3,5,6-trimethylbenzoyloxy}-2-methoxy-3,5,6-trimethylbenzamide]
0.74 | > 50 | COC(=O)c1ccc(OCCCOc2c(C)c(C)c(C(=O)Oc3c(C)c(C)c(C(N)=O)c(OC)c3C)c(OC)c2C)cc1 [Example 46, 4-{4-[3-(4-Methoxycarbonylphenoxy)propoxy]-2methoxy-3,5,6-trimethylbenzoyloxy}-2-methoxy-3,5,6 trimethylbenzamide]
0.22 | 22 | COc1c(C)c(OC(=O)c2c(C)c(C)c(OCCCOc3ccc(C(=O)O)cc3)c(C)c2OC)c(C)c(C)c1C(N)=O [Example 47, 4-{4-[3-(4-Carboxyphenoxy)propoxy]-2-methoxy-3,5,6-trimethylbenzoyloxy}-2-methoxy-3,5,6-trimethylbenzamide]
